The conditions of series [1]: literature value; cited from earlier work.
A short description of series [2]: Excitation and emission spectra of LNPs (Example 5). Format: physicochemical. As to conditions: 530 nm excitation, 25° C. On the procedure:
The hydrodynamic sizes of liposomes were measured with the DLS particle analyzer (NanoBrook 90PlusPALS, Brookhaven Instruments, USA). The incident angle of the 659 nm laser was 90 degrees. Samples were diluted with DI water until the count rate reaches 300-700 kcps and the temperature was set at 25° C. The excitation and emission spectra of LNPs were characterized via a spectrometer (Fluoromax-Plus-C, Horiba, Japan) using a 300 μL quartz cuvette (Hellma, Germany) with stir at 25° C. The excitation spectrum was scanned from 650-810 nm with an 830 nm LP emission filter and an emission recording wavelength at 850 nm. The emission spectrum was acquired using a 530 nm excitation light with a 550 nm LP emission filter (Semrock, USA) and recorded from 650-850 nm.

For series [3] the following is noted: cited from earlier work.

Consider `CC1(C)C(/C=C/C=C/C=C/C=C2\N(CCCCS(=O)(=O)O)c3ccc4ccccc4c3C2(C)C)=[N+](CCCCS(=O)(=O)[O-])c2ccc3ccccc3c21` [ICG, indocyanine green], for which, in series [1], the emission wavelength result is reported as “around 810 nm” and the maximum absorption wavelength entry was “around 785 nm”. The compound also yielded an emission peak in series [2] of 809 nm. In addition, the “degradation of aqueous solutions” value in series [3] (DI water and buffered saline) was “degraded relatively quickly by day 20”. Besides, the plasma half-life in series [3] was 2 to 4 min.

(Values after patent US20220105206A1, “SENSITIVITY ADVANCES IN ULTRASOUND SWITCHABLE FLUORESCENCE SYSTEMS AND TECHNIQUES” (Board of Regents, The University of Texas System, priority 2020, published 2022).)
